Assay type in all cases: cell-based, human
The subject of data set [1] is BxPC-3 cells. The experiment in a line: XTT cell proliferation assay, BxPC-3. The procedure:
(§1) Human PDAC (AsPC-1, BxPC-3, Panc-1 scr, Panc-1 p53-R273H knock-out (KO) hTERT-HPNE), breast (MCF-7), lung (A549), and colon (HT-29) cancer cell lines were purchased from the American Type Culture Collection (ATCC). The MCF-7, A549, Panc-1 scr, Panc-1 p53 KO and HT-29 cell lines were grown in Dulbecco's Modified Eagle Medium (DMEM; Biological Industries, Beit HaEmek (BI), Israel), and the BxPC-3 and AsPC-1 cell lines were cultured in Roswell Park Memorial Institute-1640 (RPMI-1640; BI, Israel) medium. All media was supplemented with 10% fetal bovine serum (FBS), 200 μM L-glutamine (BI), and 1% penicillin-streptomycin (BI). Cells were cultured at 37° C. in a 5% CO2 humidified incubator.
(§2) Eravacycline dihydrochloride (MedChem Express (MCE)) was dissolved in […] (DDW). Tigecycline (MCE) and omadacycline (MCE) were dissolved in dimethyl sulphoxide (DMSO). All drugs were prepared as 100 mM stock solutions. All cell lines were treated with DMSO as a control (less than 0.1%) or tigecycline, omadacycline, or eravacycline (at the indicated concentrations) for 72 hours. Cell viability and proliferation were determined using the XTT Cell Proliferation Assay Kit (Promega).
(§3) The XTT Cell Proliferation Assay Kit was used to determine cell viability and proliferation. Cells were seeded in 96-well plates at a density of 4,000 cells per well and allowed to attach overnight in a 5% CO2 incubator at 37° C. After overnight incubation, cells were treated with culture medium or in a medium containing tigecycline, omadacycline, or eravacycline at different concentrations (1, 2, 5, 10, 25, and 50 μM) for the indicated time period. Then, 50 μl XTT reaction solution (0.1 ml activation solution+5 ml XTT reagent solution) was added to each well, and the plate was incubated at 37° C. for two hours. After shaking the plate gently to distribute the dye in the wells, the absorbance was measured with a spectrophotometer (Bio-RadiMark Microplate Absorbance reader) at a wavelength of 450 nm and a reference wavelength of 655 nm.
To evaluate the half maximal inhibitory concentration (IC50) of tetracycline derivatives on five different cell lines (MCF-7, A549, HT-29, BxPC-3, and AsPC-1), the cells were seeded and allowed to attach overnight. All cells were washed with phosphate buffered saline (PBS) and then cultured in fresh media containing the drugs tigecycline, omadacycline, or eravacycline at an increasing concentration (0-50 μM) for 72 h. Inhibition of cell proliferation was determined using the XTT Cell Proliferation Assay Kit.
To investigate the effect of tetracycline derivatives on cell proliferation in human breast, lung, colon, and PDAC cells, the inventors treated all cell lines (MCF-7, A549, HT-29, BxPC-3, and AsPC-1) with different concentrations of tigecycline, omadacycline, and eravacycline (1, 2, 5, 10, 25, and 50 μM), with medium used as a control, for 72 h. Then, an XTT assay was performed to determine the growth inhibition rate.
On the technique in general: Formazan colour is commonly taken as a measure of viable cells.

The next data set concerns MCF-7 cells. Briefly: XTT cell proliferation assay, MCF-7. Conditions: MCF-7, 72 h, 1-50 μM. The procedure:
as §1, §2
The XTT Cell Proliferation Assay Kit was used to determine cell viability and proliferation. Cells were seeded in 96-well plates at a density of 4,000 cells per well and allowed to attach overnight in a 5% CO2 incubator at 37° C. […] After shaking the plate gently to distribute the dye in the wells, the absorbance was measured with a spectrophotometer (Bio-RadiMark Microplate Absorbance reader) at a wavelength of 450 nm and a reference wavelength of 655 nm.
To evaluate the half maximal inhibitory concentration (IC50) of tetracycline derivatives on five different cell lines (MCF-7, A549, HT-29, BxPC-3, and AsPC-1), the cells were seeded and allowed to attach overnight. […] Inhibition of cell proliferation was determined using the XTT Cell Proliferation Assay Kit. […]

The subject of data set [2] is Panc-1 scr, Panc-1 p53-R273H knock-out (KO) cell lines. The experiment in a line: XTT cell proliferation assay, Panc-1 cell lines. The following applies: 72 h, 1-50 μM. As for the experimental part: as §1
as §3, with “Then, 50 μl XTT reaction solution (0.1 ml activation solution+5 ml XTT reagent solution) was added to each well, and the plate was incubated at 37° C. for two hours.” left out, “nm. […]” for “nm.”

In data set [3] the test system is BxPC-3 cells. Briefly: Scratch wound healing (cell migration) assay. Conditions: BxPC-3, 10 μM, 0, 24, 48 and 72 hours. The procedure: BxPC-3 cells were cultured in six well plates to full confluence; then the monolayer of the cells was scratched using a 200 μl pipette tip. Subsequently, PBS was used to wash and remove floating and damaged cells, and medium alone or medium containing 10 μM eravacycline was added to the cells for further culture. Cell migration over the denuded area was observed and captured at the indicated times with a Nikon ECLIPSE Ts2 fluorescence microscope, equipped with DS-Fi3 camera. The wound closure rates were also measured at the indicated time points.
As one of the most malignant types of digestive tract cancer cells, PDAC cells have powerful migration and invasiveness capabilities. Therefore, the effect of eravacycline on cell migration abilities was investigated.

A further data set deals with POLK. The experiment in a line: Western blot of POLK protein expression in BxPC-3 cells. Conditions: BxPC-3, 72 h, increasing concentrations.
For a further data set, the system named is p53 (mutated in BxPC-3). The experiment in a line: Western blot of p53 protein expression in BxPC-3 cells. The following applies: BxPC-3, 72 h, increasing concentrations.

In the case of `CN(C)[C@@H]1C(O)=C(C(N)=O)C(=O)[C@@]2(O)C(O)=C3C(=O)c4c(O)c(NC(=O)CN5CCCC5)cc(F)c4C[C@H]3C[C@@H]12` [eravacycline, (4S,4aS,5aR,12aS)-4-(Dimethylamino)-7-fluoro-3,10,12,12a-tetrahydroxy-1,11-dioxo-9-[2-(pyrrolidin-1-yl)acetamido]-1,4,4a,5,5a,6,11,12a-octahydrotetracene-2-carboxamide], the “decrease in cell growth” value worked out at 27% in the data set on BxPC-3 cells [1] (BxPC-3, 1 μM, 72 h); 63% in the data set with BxPC-3 cells [1] (BxPC-3, 10 μM, 72 h); 93% in the data set on BxPC-3 cells [1] (BxPC-3, 50 μM, 72 h). In the data set with BxPC-3 cells [1] (BxPC-3, 72 h, 1-50 μM), the “effect on cell survival / viability (in words)” value is “strong and selective viability reduction”. In addition, in the data set with BxPC-3 cells [1] (BxPC-3, 72 h, concentration-dependent, 1-50 μM), the “suppression of proliferation, up to” value is recorded as 90-93%. Also, the cytotoxicity at 25 µM in the data set with BxPC-3 cells [1] (Homo sapiens, BXPC-3, 72 h, read-out: decrease in cell growth / viability, BxPC-3, 25 μM, 72 h) turned out to be 93%. For the same compound, the IC50 in the data set on BxPC-3 cells [1] (Homo sapiens, BxPC-3, 72 h, XTT, read-out: IC50, inhibition of cell proliferation) is 3.57 µM. Besides, the “decrease in cell growth / viability” value with BxPC-3 cells [1] (human, 72 h, 25 μM) stood at 90%. In the data set on MCF-7 cells, the “effect on cell survival / proliferation (in words)” value is given as “No significant effect”. For the same compound, the “effect on cell viability (in words)” value in data set [2] was “No significant effect”; in data set [2] (listed as Eravacycline), “no toxicity was observed”. Also, the “migration rate to wound vs control” value in the data set with BxPC-3 cells [3] is on record as “significantly lower migration rate”. The “POLK protein expression vs control” value in the data set on POLK is reported as “significantly reduced”. For the same compound, the “p53 protein expression vs control” value in the data set on p53 (mutated in BxPC-3) is reported as “significantly reduced”.

The values are drawn from US20250325565A1, “ERAVACYCLINE FOR TREATING CANCER” (B. G. NEGEV TECHNOLOGIES AND APPLICATIONS LTD., priority 2022, published 2025).
